Here are results for three molecules from BindingDB's records for doi:10.1021/jm00073a011 (Glaxo Group Research, 1993).

This test addresses T1, Dimer of Gag-Pol polyprotein [489-587] (Human immunodeficiency virus 1, UniProt P12497).
T1 construct: 489-587
Kind of test: Protease Inhibition Assay. The conditions noted are these: pH 6; 37 °C. As to the method:
IC50 values were obtained by assaying the enzyme against the synthetic substrate peptide […], which was tritiated at the proline residue, and then was coupled via its N-terminal lysine to an Affi-gel bead mixture. The assay was performed in 96-well microtiter filtration plates. The plates containing HIV protease and radiolabeled substrate beads were incubated with or without inhibitor. […] IC50 determinations were performed in duplicate at each concentration with mean values used for data analysis.
The IC50 is the concentration at which inhibition is half-maximal. `CC1(C)S[C@H]([C@H](NC(=O)Cc2ccccc2)C(N)=O)N[C@H]1C(=O)NCCNC(=O)[C@@H]1N[C@@H]([C@H](NC(=O)Cc2ccccc2)C(N)=O)SC1(C)C` returned a half-maximal inhibitory concentration (IC50) of 3 nM. In other words, the single-digit nanomolar range. Then `CCNC(=O)[C@@H](NC(=O)Cc1ccccc1)[C@@H]1N[C@@H](C(=O)NCCNC(=O)[C@@H]2N[C@@H]([C@H](NC(=O)Cc3ccccc3)C(=O)NCC)SC2(C)C)C(C)(C)S1`, with 4.8 nM; and `COC(=O)[C@@H](NC(=O)Cc1ccccc1)[C@@H]1N[C@@H](C(=O)NCCNC(=O)[C@@H]2N[C@@H]([C@H](NC(=O)Cc3ccccc3)C(=O)OC)SC2(C)C)C(C)(C)S1` [[2R-[2a(R*),4B ] ]-4,4-[1,2-Ethanediylbis[aminocarbonyl] ]-bis[5,5-dimethyl-a-[ (phenylacetyl)amino]-2-thiazolidineacetic acid, methyl ester]], with 60 nM.
